Experimental data: US20160346202A1, “Composition for Vectorizing an Anti-Cancer Agent” (GUERBET, priority 2014, published 2016)

How the values were obtained:
[1] = Plasma kinetics of the anti-cancer agent after intra-arterial (TACE) injection, rat with N1-S1 tumor; assay type: in vivo, female Sprague-Dawley rats; conditions: female, Sprague-Dawley, rat N1-S1 model
Method: The tumor induction method described in Garin et al. (Lab Anim. 2005 July; 39(3): 314-20) was used on female Sprague-Dawley rats (supplier Dépré or Janvier, France), anesthetized beforehand.
6×10^6 N1-S1 rat hepatocellular carcinoma tumor cells (deposited at ATCC under the reference CRLL-1604™, also called Novikoff cells) suspended in 100 μl of IMDM medium (Iscove's Modified Dulbecco's Medium) were administered under the hepatic capsule of the left lateral lobe of the female rats, by slow injection over the course of approximately 50 seconds. […]
The plasma doxorubicin assay was carried out in the heparinized rat plasma by high performance liquid chromatography (or HPLC), the chromatograph being equipped with a fluorescence detector. […] 10 μl of the extract were analyzed by reverse-phase HPLC on a Zorbax 300SB-C18 4.6×150 mm, 3.5 μm column (with a Zorbax 300SB-C18 4.6×12.5 mm, 5 μm precolumn) and fluorimetric detection (excitation wavelength 480 nm, emission wavelength 560 nm).
The analysis was carried out over the course of 30 minutes with a 5 mM ammonium acetate, pH 3.5/acetonitrile gradient. […] When the area of the HPLC peak was greater than the upper limit of quantification, 5 μl were injected instead of 10 μl in order to obtain an area of doxorubicin included in the range. […]

[2] = Plasma kinetics of doxorubicin after TACE, VX2 rabbits; assay type: in vivo, New Zealand rabbits; conditions: intra-arterial injection 300 μl, mean (±SD)
Method: The tumor induction method described by Hong et al. (Clin Cancer Res 2006; 12 (8): 2563-2567) was used on New Zealand rabbits (NZ; supplier Charles River, France), anesthetized beforehand.
Fragments of VX2 tumor tissues are implanted (a fragment of 25 mg/per liver of NZ rabbit) under the hepatic capsule of the left lateral lobe of the rabbits. These rabbits with a tumor in the left hepatic lobe will subsequently be referred to as “VX2 rabbits”.
19 days after having carried out the tumor induction method, the TACE is carried out. Thus, the products (volume: 300 μl) are injected into the pre-anesthetized animals, using a catheter guided by fluoroscopy (X-ray imaging) via the femoral artery and brought up to the artery feeding the hepatic tumor (injection only where selectivity has been achieved). The TACE is carried out in a dedicated room and under conditions close to clinical practice (interventional radiology).
Blood samples of 300 μl at times 0, 5, 15, 30 or 45 minutes after intra-arterial injection were taken after catheterization of the ear vein. 200 μl of plasma after centrifugation were then recovered and heparinized for assaying the anti-cancer agent. A study of the plasma kinetics of the anti-cancer agent was thus carried out.
The plasma doxorubicin assay was carried out in the heparinized plasma of VX2 rabbits under the same conditions as those described above. […]

[3] = Visual stability (phase separation) of the emulsion; assay type: physicochemical; conditions: comparative emulsions not in accordance with the invention
Method: The emulsion according to the invention is advantageously stable. The term “stable emulsion” is intended to mean an emulsion having, under conventional temperature (20° C.) and atmospheric pressure (1 bar) conditions and within 24 hours following its preparation, a visual phase separation of less than 5% by volume relative to the total composition in emulsion form. […] Visual phase separation manifests itself when a solution no longer appears uniform to the eye, i.e. when the appearance of at least two phases is observed.

| concentration at 45 min ([1]; 45 min after intra-arterial injection, read-out: Plasma doxorubicin concentration at 45 min) [ng/mL] | concentration at 5 min ([1]; intra-arterial injection 100 μl, 0.5 mg anti-cancer agent, average) [ng/mL] | concentration at 5 min ([2]; New Zealand, rabbit, plasma, read-out: Plasma concentration of the anti-cancer agent 5 minutes after injection) [ng/mL] | Plasma concentration of the anti-cancer agent 5 minutes after injection ([2]; listed as Control doxorubicin alone given IA) [µg/L] | Compound | Observations: phase separation / stability [3] |
| --- | --- | --- | --- | --- | --- |
| 112 | 2450 | 563 ± 282 | 563 ± 282 | COc1cccc2c1C(=O)c1c(O)c3c(c(O)c1C2=O)C[C@@](O)(C(=O)CO)C[C@@H]3O[C@H]1C[C@H](N)[C@H](O)[C@H](C)O1 [Control doxorubicin alone, doxorubicin] |  |
|  |  |  |  | Span® 20 | underwent phase separation immediately after they were prepared |
|  |  |  |  | Span® 83 | underwent phase separation immediately after they were prepared |
|  |  |  |  | Span® 85 | underwent phase separation immediately after they were prepared |
